Reference: patent US7378409B2, “Substituted cycloalkylamine derivatives as modulators of chemokine receptor activity” (Bristol-Myers Squibb Company, priority 2003, dated 2008)

Test: Long-term storage stability of the isolated salt
Format: physicochemical
Details: TFA salt of the title compound; converted to free base for that reason
Protocol: Example 3a, Step 5: A solution of (1R,3R,4S)-3-butyl-N1-isopropyl-N1-methylcyclohexane-1,4-diamine (58 mg, 0.25 mmol) in methylene chloride (5 mL) was charged successively with HATU (113 mg, 0.29 mmol), 2-(5-(trifluoromethyl)-1H-indazol-3-ylamino)acetic acid (58 mg, 0.22 mmol), and N,N-diisopropylethylamine (0.22 mL, 1.24 mmol). The reaction was stirred for 16 h at RT, concentrated in vacuo, and diluted with EtOAc. The organic phase was washed successively with sat. NaHCO3, water, 1N HCl, water, and brine before being dried (sodium sulfate), filtered, and concentrated in vacuo. […] Accordingly, this material was dissolved in EtOAc and the organic phase was washed with sat. NaHCO3 and brine before being dried (sodium sulfate), filtered, and concentrated in vacuo to afford the free base of the title compound, N-((1S,2R,4R)-2-butyl-4-(isopropyl(methyl)amino)cyclohexyl)-2-(5-(trifluoromethyl)-1H-indazol-3-ylamino)acetamide. MS found: (M+H)^+=468.4.

stability to long-term storage: unstable to long-term storage
Compound: CCCC[C@@H]1C[C@H](N(C)C(C)C)CC[C@@H]1NC(=O)CNc1n[nH]c2ccc(C(F)(F)F)cc12 [Example 3a, N-((1S,2R,4R)-2-butyl-4-(isopropyl(methyl)amino)cyclohexyl)-2-(5-(trifluoromethyl)-1H-indazol-3-ylamino)acetamide]
